Earlier results as cited in the CATMoS acute toxicity set (Mansouri et al. 2021).
Where “and” joins values, the source holds several entries; their conditions need not be identical. Equal entries are not always repeated.

Experiment: rat acute oral toxicity
Conditions: in vivo

Compound | LD50
OC[C@@H](O)[C@@H](O[C@@H]1O[C@H](CO)[C@H](O)[C@H](O)[C@H]1O)[C@H](O)[C@@H](O)CO | 30000 mg/kg and 27500 mg/kg
Cc1onc(-c2c(F)cccc2Cl)c1C(=O)N[C@@H]1C(=O)N2[C@@H]1SC(C)(C)[C@@H]2C(=O)O | 11000 mg/kg
CN1CCCCC1CCN1c2ccccc2Sc2ccc(Br)cc21 (stereo not given) | 900 mg/kg
C/C=C1/C[C@@H](C)[C@](O)(CO)C(=O)OCC2=CCN3CC[C@@H](OC1=O)[C@@H]23 | 34 mg/kg
CN(C(O)=NC(C)(C)c1ccccc1)c1ccccc1 | 6130 mg/kg
OC[C@H]1CO[C@@H](Cc2ccccc2)O1 | 1720 mg/kg
CCOc1ccc(N2C(=O)C=CC2=O)cc1 | 630 mg/kg
FC(F)(F)c1nc2ccc(-c3ccccc3)cc2[nH]1 | 69 mg/kg
CN1C2CCC(C)(C)C1CC(OC(=O)C(O)(c1cccs1)c1cccs1)C2 (stereo not given) | 1180 mg/kg
CCSP(SCC)SCC | 355 mg/kg
CN(C)c1ccc(C(=N)c2ccc(N(C)C)cc2)cc1 | 3000 mg/kg
Cc1ccc(S(=O)(=O)NCl)cc1 | 935 mg/kg
O=C(CCl)CCl | 20 mg/kg
CN(C)C(=S)N(C)C | 920 mg/kg
O=C(c1ccc2ccccc2n1)N1CCN=C1Nc1c(Cl)cccc1Cl | 44 mg/kg
COC(=O)C1C2C=CC(C2)C1C(=O)OC (stereo not given) | 1000 mg/kg
C=C(C)C(=O)OCC | 14800 mg/kg
CC(C)(C)C(=O)CCc1ccc(Cl)cc1 | 3140 mg/kg
ClC1=C(Cl)C2(Cl)C3CCCCC3C1(Cl)C2(Cl)Cl (stereo not given) | 100 mg/kg
COC(=O)[C@H]1[C@H]2C[C@@H]3c4[nH]c5cc(OC)ccc5c4CCN3C[C@H]2C[C@@H](OC(=O)C=Cc2cc(OC)c(OC)c(OC)c2)[C@@H]1OC | 1000 mg/kg
CCSC(=S)N(CC)CC | 712 mg/kg
CCOC(=O)Nc1ccc(NC(Cc2ccccc2)c2ccccc2)nc1N (stereo not given) | 163 mg/kg
COc1nccnc1NS(=O)(=O)c1ccc(N)cc1 | 2740 mg/kg
CN1CCC(OC(c2ccccc2)c2ccccc2)CC1 | 698 mg/kg

Compound | LD50
Cc1ccccc1CN(C)N=O | 90 mg/kg
CN(C)c1ccccc1CS(=O)c1nc2ccccc2[nH]1 (stereo not given) | 1300 mg/kg
CCOC(=O)Nc1cccc(OC(=O)Nc2ccccc2)c1 | 9600 mg/kg
Oc1c(Cl)cc(Cl)c(Cl)c1Cl | 140 mg/kg
CCOP(=S)(OC)SCN1C(=O)c2ccccc2C1=O (stereo not given) | 50 mg/kg
CC1=CC(=O)c2c(O)cccc2C1=O | 65 mg/kg
Cc1cc(C(C)(C)CC(C)(C)C)ccc1OCCOCC[N+](C)(C)Cc1ccccc1 | 800 mg/kg
CCCOc1ccc(C=CC(=O)OCC)cc1OC | 978 mg/kg
COC(C)CC(=O)O (stereo not given) | 3030 mg/kg
N[C@@H]1C[C@H]1c1ccc(F)c(F)c1 | 50 mg/kg
CCC(C(=O)O)C1(O)CCCCC1 (stereo not given) | 4820 mg/kg
CCOc1ccc(NC(=O)CC(C)O)cc1 (stereo not given) | 7000 mg/kg
Brc1ccccc1 | 2380 mg/kg
O=C(OCCCl)c1ccccc1C(=O)OCCCl | 730 mg/kg
COC1CC2CC1C1CC(C=O)CC21 (stereo not given) | 2800 mg/kg
C#CCN1C(=O)CN=C(c2ccccc2)c2cc(Cl)ccc21 | 5820 mg/kg
Nc1c(S(=O)(=O)O)cc(Nc2ccc(S(=O)(=O)O)c(Nc3nc(Cl)nc(Cl)n3)c2)c2c1C(=O)c1ccccc1C2=O | 8980 mg/kg
CC1=CCC(=C(C)C)CC1 | 4390 mg/kg
S=C(C=Cc1ccc2c(c1)OCO2)N1CCOCC1 | 285 mg/kg
CCCCNC(=O)NS(=O)(=O)c1ccc(N)cc1 | 4400 mg/kg
CC1=NN(c2ccccc2)C(=O)C1C=O (stereo not given) | 716 mg/kg
O=C(O)c1nn(Cc2ccc(Cl)cc2)c2ccccc12 | 1140 mg/kg
Nc1ccc(N=Nc2ccc(O)cc2)cc1 | 1950 mg/kg
CCN(CCCCCCOC(=O)c1ccc(OC)c(OC)c1)C1CCc2cc(OC)c(OC)cc2C1 (stereo not given) | 561 mg/kg

Compound | LD50
OCC1OC(n2cnc3c(S)ncnc32)C(O)C1O (stereo not given) | 900 mg/kg
N#CC(N=Nc1ccc(C(F)(F)F)cc1)=NNc1ccc(C(F)(F)F)cc1 | 613 mg/kg
C=CCOCC1CO1 (stereo not given) | 1600 mg/kg
c1ccc2c(c1)CN1CCN=C1N2 | 900 mg/kg
CCOC(C)=O | 5620 mg/kg
CCCCC(CC)COC(=O)CS (stereo not given) | 303 mg/kg
CCCCCOC(CBr)c1ccc(C(C)C)cc1 (stereo not given) | 250 mg/kg
Cc1ccc(N)cc1Cl | 655 mg/kg
C=C1C(=CC=C2CCCC3(C)C2CCC3C(C)CCCC(O)(C(F)(F)F)C(F)(F)F)CC(O)CC1O (stereo not given) | 0.0417 mg/kg
O=C(C1CCCCC1)N1CC(=O)N2CCc3ccccc3C2C1 (stereo not given) | 2840 mg/kg
CC(C)(C)CC(C)(C)Nc1ncnc(N(CCCCCCNC2CC(C)(C)NC(C)(C)C2)C2CC(C)(C)NC(C)(C)C2)n1 | 9910 mg/kg
CCC(=O)c1ccc(OCC(O)CO)c(OC)c1 (stereo not given) | 1640 mg/kg
O=C(O)CCCNS(=O)(=O)c1cccc(C(F)(F)F)c1 | 13000 mg/kg
Nc1cc(S(=O)(=O)O)c2cccc(S(=O)(=O)O)c2c1 | 11400 mg/kg
C=CCc1ccc(OC)cc1 | 1230 mg/kg
C=C(C)C1CC=C(C=NO)CC1 (stereo not given) | 2500 mg/kg
C=CCN1CCc2nc(N)sc2CC1 | 403 mg/kg
C1COCCOCCNCCOCCOCCN1 | 3400 mg/kg
c1cc2ccc3cccc4ccc(c1)c2c34 | 2700 mg/kg
CC1(NC(N)=O)CCCCC1 | 1040 mg/kg
CC(C)CC(=O)OCCc1ccccc1 | 6220 mg/kg
NC1CCC(CC2CCC(N)CC2)CC1 (stereo not given) | 1750 mg/kg
O=C(O)C(Cc1cc(I)c(O)c(I)c1)c1ccccc1 (stereo not given) | 1100 mg/kg
CNC(=O)Oc1ccc(NC(C)=O)cc1 | 794 mg/kg

Compound | LD50
CC(N)C1CCC(c2ccccc2)CC1 (stereo not given) | 690 mg/kg
CC[C@@H]1C(=O)OC[C@@H]1Cc1cncn1C | 911 mg/kg and 402 mg/kg
C=C(F)C(=O)OCC(F)(F)C(F)F | 60 mg/kg
CNC(=O)Oc1ccc(CCC#N)cc1 | 620 mg/kg
CC(OCCCl)OCCCl | 310 mg/kg
CC1CC(Cl)CCC1C(=O)OC(C)(C)C (stereo not given) | 4560 mg/kg
CC1CN(CCCCCCCCNC(=O)Oc2ccc3c(c2)C2(C)CCN(C)C2N3C)CC(C)O1 (stereo not given) | 56 mg/kg
O=C1CCc2cc(C(O)CCCN3CCN(c4cccc(Cl)c4)CC3)ccc2N1 (stereo not given) | 500 mg/kg
O=NN(Cc1ccccc1)Cc1ccccc1 | 900 mg/kg
CN(N=O)c1ccc(N=O)cc1 | 1370 mg/kg
CC(C)(N)Cc1ccccc1 | 188 mg/kg
Cc1cc(=O)c2c(C)ccc(C)c2o1 | 2960 mg/kg
O=C1C(=NNc2cc([N+](=O)[O-])ccc2O)C(S(=O)(=O)O)=Cc2cc(S(=O)(=O)O)cc(Nc3nc(Cl)nc(Cl)n3)c21 | 9120 mg/kg
C[N+](C)(C)[O-] | 8700 mg/kg
COc1ccc2c(c1)c(CC(=O)Oc1cccc(C(F)(F)F)c1)c(C)n2C(=O)c1ccc(Cl)cc1 | 307 mg/kg
Nc1n[nH]c2ccc(C(F)(F)F)cc12 | 90 mg/kg
c1cc(N(CC2CO2)CC2CO2)ccc1OCC1CO1 (stereo not given) | 1040 mg/kg
CC(Cl)C(Cl)Cl (stereo not given) | 1230 mg/kg
CCCCCCCC/C=C\CCCCCCCC(=O)NCC[N+]1(C)CCN=C1CCCCCCC/C=C\CCCCCCCC (stereo not given) | 24400 mg/kg
C=CCn1ccc(=O)c(O)c1C | 800 mg/kg
CC(=O)OC(C)=O | 1780 mg/kg
CS(=O)c1ccc(Cl)cc1 (stereo not given) | 463 mg/kg
O=C1C(CCS(=O)c2ccccc2)C(=O)N(c2ccccc2)N1c1ccccc1 (stereo not given) | 358 mg/kg
O=C(Nc1nc(-c2ccccc2)cs1)OCC(Cl)(Cl)Cl | 550 mg/kg

Compound | LD50
CCOC(=O)C(Br)C#N (stereo not given) | 420 mg/kg
COc1ccc2cc(C(C)C(=O)OCCOCCO)ccc2c1 (stereo not given) | 638 mg/kg
FC(F)(F)c1nc2ccc(Cl)cc2[nH]1 | 6.82 mg/kg
CN1CCC(=C2c3ccccc3Oc3ccc(Cl)cc32)CC1 | 319 mg/kg
CN(C)CCn1c2ccccc2c(=O)c2c([N+](=O)[O-])cccc21 | 41 mg/kg
C#CCc1ccc(COC(=O)C2C(C=C(C)C)C2(C)C)o1 (stereo not given) | 10000 mg/kg
CCCCCCCCCCCC[N+](C)(C)Cc1ccc(Cl)c(Cl)c1 | 730 mg/kg
COc1ccc(CC2CNC(=O)N2)cc1OC1CCCC1 (stereo not given) | 600 mg/kg
CCOC(=O)Cc1ccccc1 | 3300 mg/kg
CCc1c(C)[nH]c2c1C(=O)C(CN1CCC3(CC1)OCCO3)CC2 (stereo not given) | 240 mg/kg
OCCCO | 15000 mg/kg
C=C(CC)C(=O)c1ccc(OCC(=O)O)c(Cl)c1Cl | 1000 mg/kg
C=CC(=O)OCCOCC | 1070 mg/kg
C1COC(NC(C2CC2)C2CC2)=N1 | 295 mg/kg
CC(C)=CC1CC(C)CCO1 (stereo not given) | 4300 mg/kg
CC(C)=CCC1C(=O)N(c2ccccc2)N(c2ccccc2)C1=O | 1340 mg/kg
CNC(=O)Oc1cc(C)ccc1C(C)C | 500 mg/kg
Cc1ccccc1CNC1=NCCS1 | 164 mg/kg
Cc1ccc(C2(O)CCN(CCCC(=O)c3ccc(F)cc3)CC2)cc1 | 152 mg/kg
COc1ccccc1OCC(O)CO (stereo not given) | 1510 mg/kg
C[C@@H]1CC[C@H]2[C@@H](C)C(=O)O[C@@H]3O[C@@]4(C)CC[C@@H]1[C@]32OO4 | 5580 mg/kg
N#CS/C=C/SC#N | 77 mg/kg
COCCC#N | 4390 mg/kg
CC(C(=O)O)c1ccc2oc(-c3ccc(Cl)cc3)nc2c1 (stereo not given) | 118 mg/kg

Compound | LD50
CCN1C[C@]2(COC)[C@H](O)C[C@H](OC)[C@]34C1[C@H]([C@H](OC)[C@H]23)[C@]1(OC(C)=O)[C@H]2[C@@H](OC(=O)c3ccccc3)[C@](O)(C[C@H]24)[C@@H](OC)[C@@H]1O | 5.97 mg/kg
CCn1cc(C(O)CN(C)C)c2ccccc21 (stereo not given) | 80 mg/kg
CCCCCCCCCCCCN1CC(C)OC(C)C1 (stereo not given) | 3500 mg/kg
Cc1cc(C(C#N)c2ccc(Cl)cc2)c(Cl)cc1NC(=O)c1cc(I)cc(I)c1O (stereo not given) | 262 mg/kg
COc1cccc([C@]2(O)CCCC[C@H]2CN(C)C)c1 (single isomer, unassigned) | 228 mg/kg
CC(=O)OCCC1=CC2CC(C1)C2(C)C (stereo not given) | 3000 mg/kg
CCCC(C)C(=O)Nc1ccc(C)c(Cl)c1 (stereo not given) | 5100 mg/kg
CCN(CC)c1ccc(-c2nc(=O)n(C)nc2-c2ccc(N(CC)CC)cc2)cc1 | 650 mg/kg
CC[N+](C)(C)C(C)CC(c1ccccc1)c1ccccc1 (stereo not given) | 1000 mg/kg
COc1c2ccoc2cc2oc(CO[C@@H]3O[C@H](CO)[C@@H](O)[C@H](O)[C@H]3O)cc(=O)c12 | 1470 mg/kg
CC(=O)OCC(C)c1ccccc1 (stereo not given) | 4300 mg/kg
CCCCCCCCCCCCCCCCSCC(COC)COP(=O)([O-])OCC[N+](C)(C)C (stereo not given) | 253 mg/kg
O=S(=O)(O)c1cccc2c(S(=O)(=O)O)cccc12 | 30000 mg/kg
CON=CC1=CCCN(C)C1 | 300 mg/kg
CCCCCCCCCCCCCCOCCOCCOCCOCCOCCOCCOCCO | 2600 mg/kg
C=CCc1cc(OC)c2c(c1)OCO2 | 4260 mg/kg
Cc1cccc(C)c1Nc1ncccc1C(=O)O | 2.3 mg/kg
CCN1CCOCC1 | 1780 mg/kg
NS(=O)(=O)c1ccccc1 | 991 mg/kg
CCOP(=O)(OCC)Oc1ccc([N+](=O)[O-])cc1 | 1.8 mg/kg
